# According to patent US7776858B2, “Methods of treatment of chronic pain using eszopiclone” (Sepracor Inc., priority 2004, dated 2010):
# Tests used:
# [1] = tested on: conscious dogs; test: Dose escalation safety study, cardiovascular and respiratory parameters after acute intravenous administration
# Procedure: To establish the safety of eszopiclone, a dose escalation study was carried out. Cardiovascular and respiratory parameters were evaluated in conscious dogs following acute intravenous administration of (R)-, (S)- or racemic zopiclone at three doses (3, 5 and 12 mg/kg).
# [2] = tested on: mice; test: Antagonism of oxotremorine induced salivation; type: in vivo; conditions: doses up to 300 mg/kg, p.o.
# Procedure: Eszopiclone was evaluated for antimuscarinic activity in vivo.
# [3] = acute intravenous, 3, 5 and 12 mg/kg
compound,measurement,setting,value
CN1CCN(C(=O)O[C@@H]2c3nccnc3C(=O)N2c2ccc(Cl)cn2)CC1 [(R)-Zopiclone],hemodynamic effect,"[1]; acute intravenous, 12 mg/kg",did not produce a consistent hemodynamic effect
same,"Blood gases and blood chemistries (pH, pCO2, pO2, hematocrit, and lactate)",[1]; [3],remained unaffected
same,cardiotoxicity by electrocardiogram (ECG),[1]; [3],No evidence of cardiotoxicity
same,antagonism of oxotremorine induced salivation,[2],"neither (R)-, (S)-, nor racemic zopiclone significantly antagonized"
